Measured values published in publication PMC9599757, “Leveraging the Structure of DNAJA1 to Discover Novel Potential Pancreatic Cancer Therapies” (Biomolecules, 2022).

Experiments:
DNAJA1 [1] = biological target: T1, DNAJA1 (Homo sapiens, UniProt P31689); test: 1D […] NMR line broadening and 2D 1H-15N HSQC chemical shift perturbation; assay type: binding
T1 construct: DNAJA1-107 (residues 1 to 107, J-domain and linker, N-terminal 6x-His tag)

DNAJA1 [2] = biological target: T1, DNAJA1; test: ITC; STD NMR and 2D 1H-15N HSQC chemical shift perturbation; assay type: binding
[3] = biological target: T2, DNAJA1-107 (residues 1 to 107 of human DnaJ homolog subfamily A member 1) (human, UniProt P31689 1-107); test: NMR titration; 15N-DNAJA1-107 mixed with ANT3 (232-272) at DNAJA1-107:ANT3 molar ratios 10:1, 5:1 and 1:1 (50 uM each at equal molarity); 10 mM Tris-HCl, 1 mM EDTA, 6% trehalose, pH 8.0; 2D 1H-15N HSQC; immediate, concentration-dependent precipitation on mixing taken as the sign of interaction; details: both partners purified
T2 construct: The methods name an N-terminal 6x-histidine tag; 15N-labelled for the NMR experiment with ANT3; source: for the pull-down immobilised on cobalt resin; not shown: His6, N-terminal, kept

## Nc1ncnc2c1ncn2[C@@H]1O[C@H](COP(=O)(O)OP(=O)(O)O)[C@@H](O)[C@H]1O [ADP]
DNAJA1 [1]
  1D 31P NMR line broadening and 2D 1H-15N HSQC chemical shift perturbation: ADP, O-phospho-L-serine, O-phospho-L-tyrosine, and dihydroxyacetone phosphate exhibited specific binding to DNAJA1-107

## CCOc1ccc(-c2cc(OC(=O)c3cccs3)c3c(C)oc(C)c3c(=O)c2)cc1 [compound 7727968, 6-(4-ethoxyphenyl)-1,3-dimethyl-4-oxo-4H-cyclohepta[c]furan-8-yl 2-thiophenecarboxylate]
DNAJA1 [2]
  Kd: 10 µM

## O=C(c1ccc(Br)s1)N1CCN(c2ccc(F)cc2)CC1 [compound 9101204, 1-[(5-bromo-2-thienyl)carbonyl]-4-(4-fluorophenyl)piperazine]
DNAJA1 [2]
  Kd: 0.1 ± 0.3 µM

B1: Recombinant Human ADP/ATP translocase 3 (ANT3), amino acids 232-272 (domain or fragment, UniProt P12236 232-272, looked up)
chain: DTVRRRMMMQSGRKGADIMYTGTVDCWRKIFRDEGGKAFFK
notes: ADP/ATP translocase 3 (ANT3), human, amino acids 232-272; The construct included an N-terminal 6xHis-KSI tag to aid purification and solubility; also called ANT3 construct; source: bought: CUSABIO, catalog number CSB-EP021520HU1
[3]
  binding result: binds
